Peptide text beside a SMILES is read from it.
What was measured:
[1] = Heparin binding to peptides coated on 96-well plastic plates (Example 2); settings: 1 mg/ml to 1 μg/ml, two hours at 37° C., FIG. 5
Procedure: In order to test the ability of the synthesized peptides (9 and 11-18) to bind to 96-well plastic plates (in which experiments with cultured cell lines can be performed), we did an experiment similar to that described above in Example 1. Stock solutions of peptides 9 and 11-18, laminin and BSA at a maximum concentration of 1 mg/ml were prepared and serially diluted in PBS+NaN3 producing final concentration from 1 mg/ml to 1 μg/ml. Fifty μl from each concentration was coated on the 96-well plates and left to dry overnight at 28° C. Then, wells were treated for two hours with […] of 2 mg/ml BSA in 6 mM phosphate, 100 mM NaCl, 68 μM CaCl2, pH 6.8 (wash buffer) in order to minimize non-specific binding. Next 50 μls of ^3 H-heparin (10 μg/ml) was added (50,000 cpm/well) for two hours at 37° C. The wells were then washed three times with wash buffer containing 0.05% Triton X-100 and finally they were incubated for thirty minutes at 60 C with 200 μl of 0.5 N NaOH and 1% SDS. The amount of ^3 H-heparin bound at each peptide concentration was quantitated as described above in Example 1.

[2] = system: Bovine aortic endothelial cells; assay: Aortic endothelial cell adhesion assay (Example 5); assay type: cell-based; settings: 0.1; 1.0; and 10.0 μg/per well adsorbed, 120 minutes at 37° C, FIG. 9
Procedure: Bovine aortic endothelial cells were isolated according to the following protocol. Aortas were obtained from a local slaughterhouse, washed in cold phosphate buffered saline (PBS) (136 mM NaCl, 2.6 mM KCl, 15.2 mM Na2HP04, pH 7.2) and processed within 2 hours. Crude collagenase (CLS III, 125-145 units per mg dry weight, Cooper Biomedical) was used at 2 mg/ml in Dulbecco's modified Eagle's medium (DMEM) (GIBCO). The vessel was clamped at the distal end, filled with the collagenase-PBS solution and digestion was carried out for 10 minutes. The lumenal contents were harvested, followed by the addition of fresh collagenase for two additional 10-minute periods. The enzyme-cell suspensions were added to an equal volume of DMEM containing 10% fetal bovine serum (FBS) to inhibit the enzyme and spun in a centrifuge at 400×g for 10 minutes. The resulting cell pellet was resuspended in DMEM containing 10% FBS, 100 units/ml of penicillin G, 100 μg/ml of streptomycin and 100 μg/ml of crude fibroblast growth factor. Cells are cultured in 75 cm^2 flasks in a humidified 5% CO2 atmosphere at 37° C. Cultures were fed twice a week with the same medium and cells were used in assays when approximately 75% confluent. Cells were identified as endothelial in nature by characteristic cobblestone morphology, contact inhibition of growth upon reaching confluency, and positive immunofluorescent staining for factor VIII:RAg (Miles Laboratories) [S. Schwartz, In Vitro, 14, 966 (1978)]. Only endothelial cells, megakaryocytes and platelets are known to contain the factor VIII:RAg. This method routinely gives a high yield of endothelial cells with little contamination (less than 5%) by smooth muscle cells, pericytes or fibroblasts as judged by phase contrast microscopy as well as by immunostaining.
Adhesion was measured using 96 well microtiter plates adsorbed with three different amounts (0.1; 1.0; and 10.0 μg/per well) of peptides 9, 11-18, BSA and laminin. Cultures of cells which were 60-80% confluent were metabolically labeled for 24 hours with the addition of 3 mCi/ml of ^3 H-amino acid mixture. On the day of the assay, the cells were harvested by trypsinization, the trypsin was inhibited by the addition of serum, and the cells were washed free of this mixture and resuspended in DMEM buffered with HEPES at pH 7.2. The adhesion medium also contained 2 mg/ml BSA. The cells were adjusted to a concentration of 3-4×10^4 /ml and 100 μls of this cell suspension was added to the wells. The assay mixture was then incubated at 37° C for 120 minutes. […] The solubilized cells were then quantitated using a liquid scintillation counter. […]

peptide 9 = target: T1, peptide 9 (Mus musculus, UniProt P02469); assay: Heparin/peptide interaction specificity, competition on coated peptide 9 (Example 4); assay type: binding; settings: 3.1 μg per well of peptide 9 coated, FIG. 7
T1 construct: made in house; host or cells: chemical solid-phase (Merrifield) synthesis, no expression host
Procedure: (§1) To check whether charge was the main factor in the interaction between heparin and peptides 9 and 13, or whether the heparin structure was also critical to this interaction heparin along with two other sulfated glucosaminoglycans, dextran sulfate and chondroitin sulfate were used in competition experiments. A standard amount of 3.1 μg per well of peptide 9 and 12.5 ug per well of peptide 13 were coated on 96-well plates as described above. […] Wells were treated for two hours with 2 mg/ml BSA in wash buffer. Then, a final volume of 50 μls was added to each well, containing a standard amount of 3H-heparin (50,000 cpm per well) and various amounts of non-radioactiveheparin, dextran sulfate and […]. After incubating for two hours at 37° C., the wells were washed and radioactivity was counted as described above in Example 1. […] Therefore, the structure of heparin is a crucial factor for this interaction.

peptide 13 = target: T2, peptide 13 (Mus musculus, UniProt P02469); assay: Heparin/peptide interaction specificity, competition on coated peptide 13 (Example 4); assay type: binding; settings: 12.5 ug per well of peptide 13 coated, FIG. 8
T2 construct: polypeptide F13 formally represents isolated laminin residues 1171-1188; made in house; host or cells: chemical solid-phase (Merrifield) synthesis, no expression host
Procedure: as §1

T1 sequence (P02469 662-681 limits assumed): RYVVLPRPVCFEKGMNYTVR

binding of ^3 H-heparin [1] | Molecule | endothelial cell adhesion [2] | molar concentration needed for 50% inhibition of ^3 H-heparin binding, relative to heparin (peptide 9) | molar concentration needed for 50% inhibition of ^3 H-heparin binding, relative to heparin (peptide 13)
bind heparin very well | laminin |  |  | 
 | VEGVEGPRCDKCTRGY [Peptide F12, 16-mer, laminin B1 chain aa 1133-1148] | potent promoters of endothelial cell adhesion |  | 
 | CC[C@H](C)[C@H](NC(=O)[C@H](Cc1ccc(O)cc1)NC(=O)CNC(=O)[C@@H]1CCCN1C(=O)[C@H](CC(=O)O)NC(=O)[C@H](CS)NC(=O)[C@@H](N)C(C)C)C(=O)NCC(=O)N[C@@H](CO)C(=O)N[C@@H](CCCNC(=N)N)C(=O)O [Peptide F18, VCDPGYIGSR] (H-VCDPGYIGSR-OH) | potent promoters of endothelial cell adhesion |  | 
 | dermatan sulfate |  | Ten to one hundred times more molar concentration | Ten to one hundred times more molar concentration
 | dextran sulfate |  | Ten to one hundred times more molar concentration | Ten to one hundred times more molar concentration

— patent US4870160A, “Polypeptides with laminin activity” (Regents of the University of Minnesota, priority 1987, dated 1989)
